The source of these data is ChEMBL document CHEMBL5614456, “Emerging Techniques in Cancer Therapy: Precision Targeting for Improved Outcomes” (ACS Med Chem Lett, 2024).

Usually IC50 stands for the concentration needed to halve the response being measured.

The nature of this experiment: Inhibition of ERK phosphorylation at Thr202/Tyr204 residues in human ASPC1 cells harboring KRAS G12D mutant […] incubated for 24 hrs by ELISA. In kind it is cell-based. The note with it: ASPC1, 24 h. Background: ELISA stands for enzyme-linked immunosorbent assay.
Regarding `CCSc1nc(N2C[C@@H]3C[C@H]2CN3C(=O)OC(C)(C)C)c2cc(C3CC3)c(Br)c(OCc3ccccc3)c2n1`, the IC50 was 0.026 µM.

As to `Cc1c(F)cc2c(cnn2C2CCCCO2)c1-c1c(C2CC2)cc2c(N3C[C@@H]4C[C@H]3CN4C(=O)OC(C)(C)C)nc(OC3CCOCC3)nc2c1OCc1ccc(-c2cn([C@H](C(=O)N3C[C@H](O)C[C@H]3C(=O)N[C@H](CO)c3ccc(-c4ccnn4C)cc3)C(C)C)nn2)cc1` (stereo partly drawn), the concentration for half-maximal inhibition (IC50) is 0.011 µM.

For the molecule `CCCCCCCCCCCCSc1nc(N2C[C@@H]3C[C@H]2CN3C(=O)OC(C)(C)C)c2cc(C3CC3)c(Br)c(OCc3ccccc3)c2n1`, the IC50 came out at 0.018 µM.

As for `CC(C)(C)OC(=O)N1C[C@@H]2C[C@H]1CN2c1nc(OC2CCOCC2)nc2c(OCc3ccccc3)c(Br)c(C3CC3)cc12`, the IC50 was 0.015 µM.

Regarding `Cc1ncsc1-c1ccc(C2(NC(=O)[C@@H]3C[C@@H](O)CN3C(=O)[C@H](C(C)C)n3cc(-c4ccc(COc5c(-c6c(C)c(F)cc7c6cnn7C6CCCCO6)c(C6CC6)cc6c(N7C[C@@H]8C[C@H]7CN8C(=O)OC(C)(C)C)nc(OC7CCOCC7)nc56)cc4)nn3)CC2)cc1` (stereo partly drawn), the IC50 was found to be 0.007 µM.

As for `CCSc1nc(N2C[C@@H]3C[C@H]2CN3C(=O)OC(C)(C)C)c2cc(I)c(Br)c(OCc3ccccc3)c2n1`, the IC50 is 0.017 µM.

`Cc1ncsc1-c1ccc([C@@H](CO)NC(=O)[C@@H]2C[C@@H](O)CN2C(=O)[C@H](C(C)C)n2cc(-c3ccc(COc4c(-c5c(C)c(F)cc6c5cnn6C5CCCCO5)c(C5CC5)cc5c(N6C[C@@H]7C[C@H]6CN7C(=O)OC(C)(C)C)nc(OC6CCOCC6)nc45)cc3)nn2)cc1` (stereo partly drawn): the IC50 worked out at 0.008 µM.

Take `Cc1c(F)cc2c(cnn2C2CCCCO2)c1-c1c(C2CC2)cc2c(N3C[C@@H]4C[C@H]3CN4C(=O)OC(C)(C)C)nc(OC3COC3)nc2c1OCc1ccccc1` (stereo partly drawn): the IC50 came to 0.006 µM.
